The record followed here is article PMC6651555, “Cathepsin L Inhibitors with Activity against the Liver Fluke Identified From a Focus Library of Quinoxaline 1,4-di-N-Oxide Derivatives” (Molecules, 2019).

Entries after “also recorded” stand apart in the source; their conditions may differ.

The target of data set [1] is T1, FhCL1 (Fasciola hepatica, UniProt Q7JNQ9).
T1 construct: made in house; host or cells: Hansenula polymorpha (yeast)
The experiment in a line: FhCL1 inhibition screening, IC50 and slow-binding (fluorogenic substrate Z-VLK-AMC). The data set is classed as biochemical. The following applies: read-out: %Inh FhCL1, 10 µM compound, 20 min preincubation, relative to enzyme alone; SD less than 10%. On the procedure: (§1) Each compound was completely dissolved in dimethylsulfoxide (DMSO) to a concentration of 10 mM to prepare the stock solutions. To evaluate the inhibition of FhCL1 and FhCL3 by quinoxaline 1,4-di-N-oxide derivatives, nanomolar concentrations of each enzyme was incubated with compounds at 10 μM. Briefly, each enzyme and compound were preincubated 20 min in a 96-well plate in 0.1 M sodium phosphate buffer pH 6, 1 mM DTT, and 1 mM EDTA at room temperature. The reaction was initiated by adding 20 μM of substrate and enzyme activity was measured by the increase in aminomethyl coumarin (AMC) fluorescence as peptide substrates were hydrolyzed (Z-VLK-AMC for FhCL1 and Tos-GPR-AMC for FhCL3), at an excitation wavelength of 340 nm and emission wavelength of 440 nm using a spectrofluorometer (Varioskan Thermo, Waltham, MA, USA). Enzyme activity was expressed as RFU/s (relative fluorescence units of AMC released per second). Each compound was tested in triplicate. A control reaction without enzymes was performed to check for the occurrence of non-catalyzed reactions between substrates and inhibitors and a spectrum from 300 to 450 nm wavelength was done for each quinoxaline 1,4-di-N-oxide derivative to verify that none of them had optical activity in the measurement range. The percentage of enzyme inhibition was calculated as 100 − (vi/vo) × 100, where vi and vo correspond to the initial rate of AMC fluorescence increase (RFU/s) with and without inhibitor, respectively.
(§2) To calculate the IC50 values, compounds were incubated with each enzyme at seven different concentrations; 0.625, 1.25, 2.5, 5, 10, 20, and 40 μM. Then, the enzyme activity was measured in a 96-well plate as described before. We plotted initial rates (RFU/s) versus log10 of inhibitor concentrations and obtained the IC50 values by fitting the data to a sigmoid curve. We also carried out slow-binding assays to evaluate the time-dependence of the inhibition. Each compound was incubated at 10 μM with the enzyme for increasing lengths of time; 3 to 120 min and the percentage of inhibition at each time point was determined as described before. We calculated the inhibition percentage of the leader compounds at 10 μM for HsCL1. The enzyme was preincubated for 20 min with the compounds and the activity was measured in a 96-well plate in 400 mM sodium acetate, pH 5.5, with 4 mM EDTA, 8 mM DTT, and 20 μM of substrate Z-VLK-AMC. The percentage of enzyme inhibition was calculated as described for FhCL1 and FhCL3. We determined the IC50 value for C17 against HsCL by incubating the enzyme with four different concentrations of the compound 0, 10, 25, and 50 μM and measuring the activity as described before. We plotted initial rates (RFU/s) versus log10 of inhibitor concentration and obtained the IC50 value by fitting the data to a sigmoid curve.

For data set [2], the system named is F. hepatica NEJ. The experiment in a line: In vitro culture of NEJ and treatment with inhibitors (motility score). The data set is classed as cell-based, Fasciola hepatica. The conditions noted are these: 50 μM compound, over 96 h. How it is done: F. hepatica metacercariae were acquired from Instituto Miguel C. Rubino (DILAVE, MGAP, Uruguay). NEJ were obtained by in vitro excystement as previously described with minor modifications. Briefly, metacercariae were incubated with 1% sodium hypochlorite for 5 min at room temperature to remove the outer cyst wall and then washed several times with PBS. Metacercariae activation was carried out in a medium prepared by mixing equal volumes of solution A (0.4% sodium taurocholate, 120 mM NaHCO3, 140 mM NaCl, pH 8.0) and solution B (50 mM HCl and 33 mM L-cysteine), and incubating at 39 °C until the NEJ begin to emerge (around 3–4 h). A 100 μm filter was used to retain the cyst wall. Collected NEJ were washed three times with RPMI-1640 supplemented with 200 U/mL Penicillin G sulfate, […] streptomycin sulfate, 500 ng/mL amphotericin B, 10 mM HEPES, counted and divided into groups of around 20 parasites that were transferred to 96 wells in tissue culture plates. Parasites were maintained at 37 °C, 5% CO2 in modified Basch’s medium. At day 1, each tested compound was added at a concentration of 50 μM in 0.5% DMSO. Also, 0.5% of DMSO was added to the control groups. Each condition was tested in duplicate. NEJ behavior was monitored under a light microscope (Olympus BX41, Hamburg, Germany), every day each well was recorded for a minute in order to assess parasite motility and registered using the following score: 3—normally active; 2—reduced activity (sporadic movement); 1—immotile (dead, adapted from). Control parasites were maintained in culture for seven days.

The target in the next data set is human cathepsin L (HsCL) (Homo sapiens, UniProt P07711). The experiment in a line: Human cathepsin L (HsCL) inhibition, selectivity assessment. The data set is classed as biochemical. On the procedure:
as §2

The test system of a further data set is HepG2 cell line. The experiment in a line: Cytotoxicity on the HepG2 cell line (Sulforhodamin B). The following applies: Homo sapiens, 24 h incubation with compound. The data set is classed as cell-based. How it is done:
(§3) Cytotoxicity studies on the HepG2 cell line. Cells: 1.5 × 10^4 cells per 96-well plate were cultured in 225 µL of DMEM medium, supplemented with L-glutamine (1%), penicillin/streptomycin (1%), and 10% (v/v) fetal bovine serum (FBS). The cultures were maintained at 37 °C and 5% CO2 for 48 h. Treatment: Compound solutions were prepared just before dosing. Stock solutions, […], were prepared in 100% DMSO (Aldrich, Saint Louis, MO, USA) and 25 µL of adequate dilution was added to each well 24 h after plating the cells. For each compound, a dose-response curve was done with five different compound concentrations: 6.25, 12.5, 25, 50, and 100 µM (treated cells, T). No effect on cell growth was observed by the presence of 0.5% DMSO in the culture media (control cells, C). Cells were incubated with the compounds for 24 h at 37 °C in 5% CO2 atmosphere, then the medium was discarded and the cells were washed with PBS. The cells were then fixed with 50 µL of TCA (50%) and 200 µL of culture medium (without FBS) for 1 h at 4 °C. Then the cells were washed with purified water and treated with Sulforhodamin B (0.4% wt/vol in 1% acetic acid) for 10 min at room temperature. The plates were then washed with 1% acetic acid and dried overnight. Finally, 100 µL of Tris buffer (pH = 10.0) was added and absorbance read at 540 nm. Data calculations: The assays were done in four replicates. At the end of the experiment, the cell survival percentage (SP) was calculated for each compound as (T/C) × 100. To determine the IC50, the SP of cells at each compound concentration was plotted and the data were fitted to a sigmoid curve. The standard error was not greater than 10% for any condition. For the cytotoxicity assay with bovine spermatozoa, semen samples were obtained from a healthy fertile Hereford bull and kept frozen in 0.5 mL straws (extended in Andromed, Minitube, Tiefenbach, Germany) under liquid nitrogen until use. The semen used belonged to a single freezing batch that was obtained during a regular collection schedule with an artificial vagina. Samples from three straws were thawed and a sperm pool was prepared in PBS at a concentration of 80 million spermatozoa per ml. Then, 50 μL of this pool was carefully mixed with 50 μL of each compound to be tested at a concentration of 50 µM or 1% DMSO in control experiments. Each compound was assayed in triplicate in 96-well plates and controls were assayed in triplicate. Plates were incubated at 37 °C for 1 h with moderate shaking. The motility analysis was carried out using a CASA (Computer Assisted Semen Analyzer) system Androvision (Minitube, Tiefenbach, Germany) with an Olympus BX 41 microscope (Olympus, Japan) equipped with a warm-stage at 37 °C. Each sample (10 μL) was placed onto a Makler Counting Chamber (depth 10 μm, Sefi-Medical Instruments, Haifa, Israel) and the following parameters were evaluated: percentage of total motile spermatozoa (motility >5 μm/s) and velocity curved line (VCL > 24 μm/s). At least 400 spermatozoa were analyzed from each sample from at least four microscope fields.

Another data set has as its system bovine spermatozoa. The experiment in a line: Cytotoxicity assay with bovine spermatozoa (CASA motility). The data set is classed as cell-based. The following applies: 50 µM, 1 h at 37 °C, relative to control sperm incubated with vehicle. On the procedure: as §3
In data set [3] the target is T1, FhCL1. In words: FhCL1 inhibition screening, IC50 and slow-binding (fluorogenic substrate Z-VLK-AMC). The data set is classed as biochemical. The following applies: 10 μM, preincubation 5 to 120 min.
The subject of data set [4] is F. hepatica NEJ. The experiment in a line: In vitro culture of NEJ and treatment with inhibitors (motility score). The data set is classed as cell-based. The conditions noted are these: Fasciola hepatica; after 48 h of incubation with NEJ; read-out: IC50 against NEJ.
For data set [5], the system named is FhCL3. The experiment in a line: FhCL3 inhibition screening, IC50 and slow-binding (fluorogenic substrate Tos-GPR-AMC). The data set is classed as biochemical, Fasciola hepatica. The following applies: 10 µM compound, 20 min preincubation, relative to enzyme alone; SD less than 10%. How it is done: as §1, §2
Data set [6] deals with FhCL3. Described as above. The following applies: 10 μM, preincubation 5 to 120 min. The data set is classed as biochemical, Fasciola hepatica.

Chain of human cathepsin L (HsCL) (P07711 114-333): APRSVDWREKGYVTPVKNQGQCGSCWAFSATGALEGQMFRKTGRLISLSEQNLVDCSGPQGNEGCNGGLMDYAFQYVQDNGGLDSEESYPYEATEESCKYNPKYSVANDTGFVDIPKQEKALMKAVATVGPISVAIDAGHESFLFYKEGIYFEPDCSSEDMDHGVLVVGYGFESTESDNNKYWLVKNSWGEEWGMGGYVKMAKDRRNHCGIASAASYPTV
T1 sequence (Q7JNQ9 entry or part of it): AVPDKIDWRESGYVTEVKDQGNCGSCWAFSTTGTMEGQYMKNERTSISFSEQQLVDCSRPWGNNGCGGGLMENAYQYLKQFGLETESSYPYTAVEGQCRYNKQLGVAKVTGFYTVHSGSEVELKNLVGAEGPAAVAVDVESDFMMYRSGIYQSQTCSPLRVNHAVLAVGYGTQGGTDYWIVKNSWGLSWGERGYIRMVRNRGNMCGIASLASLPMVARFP

Turning to `C=CCNC(=S)N/N=C/c1ccc2c(c1)[n+]([O-])c(C(=O)OCC)c(-c1ccccc1)[n+]2[O-]` [Compound C17], at FhCL1 [1], the inhibition at 10 µM was ≥ 80%. Moreover, the “Effect on NEJ motility / fasciolicide activity in vitro” value with F. hepatica NEJ [2] was “progressive decrease of parasite motility starting between 24 and 96 h of culture; also recorded: strong fasciolicide activity in vitro”. Besides, the half-maximal inhibitory concentration (IC50) – broadly, the concentration needed to halve the response being measured – on human cathepsin L (HsCL) (dose-response at 0, 10, 25 and 50 μM) was found to be 13 µM; in the data set with HepG2 cell line, 48 ± 0.3 µM; in the data set with F. hepatica NEJ [4], 25.1 µM. On human cathepsin L (HsCL) (parasite enzyme FhCL1 over human cathepsin L), the “Selectivity index FhCL1” value is 9.3. The “Selectivity index FhCL3” value on human cathepsin L (HsCL) (parasite enzyme FhCL3 over human cathepsin L) is reported as 2.6. In addition, in the data set with bovine spermatozoa, the “Sperm Motility RTC (relative to control)” value was 81 ± 3. The “Time-dependence of FhCL1 inhibition (slow-binding)” value (“Time-dependence of FhCL1 inhibition” for short) at FhCL1 [3] is recorded as “required short times to inhibit FhCL1 enzyme”.

With `CSc1nc2cc(Cl)c(Oc3cccc(Cl)c3Cl)cc2[nH]1` [TCBZ, triclabendazole, reference compound], in the data set with HepG2 cell line, the half-maximal inhibitory concentration (IC50) amounted to 32 ± 0.2 µM. In the data set with bovine spermatozoa, the “Sperm Motility RTC (relative to control)” value worked out at 88 ± 1.

On to `N#Cc1c(N)[n+]([O-])c2ccc(/C=N/NC(=O)NCCc3ccccc3)cc2[n+]1[O-]` [Compound C7], for which, on FhCL1 [1], the inhibition at 10 µM stood at 90%. Further, the “%Inh FhCL3” value in the data set with FhCL3 [5] is on record as 61%. For the same molecule, the “Effect on NEJ motility / fasciolicide activity in vitro” value in the data set with F. hepatica NEJ [2] is “did not have activity against the parasites; also recorded: did not have fasciolicidal activity”. In addition, the “Time-dependence of FhCL1 inhibition” value at FhCL1 [3] is “required short times to inhibit FhCL1 enzyme”.

Take `CCOC(=O)c1c(-c2ccccc2)[n+]([O-])c2ccc(CN3CCN(C/C=C/c4ccccc4)CC3)cc2[n+]1[O-]` [Compound C18]: the inhibition at 10 µM on FhCL1 [1] came out at 55%. Besides, the “%Inh FhCL3” value in the data set on FhCL3 [5] was determined as 61%. In addition, the “Effect on NEJ motility / fasciolicide activity in vitro” value in the data set with F. hepatica NEJ [2] is “progressive decrease of parasite motility starting between 24 and 96 h of culture; also recorded: strong fasciolicide activity in vitro”. Further, the IC50 in the data set on HepG2 cell line was < 6.2 µM. Further, the “Sperm Motility RTC (relative to control)” value in the data set with bovine spermatozoa is reported as 82 ± 2. The “Time-dependence of FhCL3 inhibition (slow-binding)” value in the data set on FhCL3 [6] is listed as “reached high inhibition of FhCL3 within a few minutes of incubation”.

As for `C=CCN1C(=O)CS/C1=N/N=C/c1ccc2c(c1)[n+]([O-])c(-c1ccccc1)c(C(=O)Nc1ccccc1)[n+]2[O-]` [Compound C24], the inhibition at 10 µM at FhCL1 [1] was ≥ 80%. Also, the “Effect on NEJ motility / fasciolicide activity in vitro” value in the data set on F. hepatica NEJ [2] is “progressive decrease of parasite motility starting between 24 and 96 h of culture; also recorded: strong fasciolicide activity in vitro”. Further, the IC50 with HepG2 cell line worked out at 16 ± 0.1 µM. In addition, the “Sperm Motility RTC (relative to control)” value in the data set with bovine spermatozoa came out at 82 ± 1.

Take `C=CCNC(=S)N/N=C/c1ccc2c(c1)[n+]([O-])c(-c1ccccc1)c(C(=O)Nc1ccccc1)[n+]2[O-]` [Compound C23]: the inhibition at 10 µM on FhCL1 [1] was ≥ 80%. Further, in the data set on F. hepatica NEJ [2], the “Effect on NEJ motility / fasciolicide activity in vitro” value is “slightly affected parasite motility; also recorded: did not have fasciolicidal activity”. The IC50 in the data set with HepG2 cell line is 12 ± 0.2 µM. Further, the “Sperm Motility RTC (relative to control)” value in the data set on bovine spermatozoa turned out to be 82 ± 1. Besides, the “Time-dependence of FhCL1 inhibition” value on FhCL1 [3] is given as “required short times to inhibit FhCL1 enzyme”. In the data set with FhCL3 [6], the “Time-dependence of FhCL3 inhibition (slow-binding)” value is “reached high inhibition of FhCL3 within a few minutes of incubation”.
